Marks after values point to notes of the source that are not given here. Square brackets hold non-standard residues; d marks the D form. Peptide text beside a SMILES is read from it. * marks the point of attachment. Phe(4-Cl) = N[C@@H](Cc1ccc(Cl)cc1)C(=O)O; hArg = N=C(N)NCCCC[C@H](N)C(=O)O; Nle = CCCC[C@H](N)C(=O)O; Abu = CC[C@H](N)C(=O)O; PhAc = O=C(Cc1ccccc1)*
Assays:
[1] = test system: hGH-RH(1-29)NH2 induced GH release; assay: Inhibition of GH release in superfused rat pituitary system; type: cell-based; conditions: antagonist 30 nM
Summary of the method: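 GH output was quantified by double-antibody RIA in superfusates of rat pituitary cells. Peptides were applied for 9 min at various concentrations before a 3-min 1 nM hGH-RH(1-29)NH2 pulse, with further pulses 30–120 min later; net integral responses given as percent of the original response.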

[2] = test system: IGF-I; assay: PC-3 xenografts, Experiment 1: serum IGF-I (RIA); type: in vivo, nude mice; conditions: 10 μg/day s.c., 28 days
Source text: (§1) For the measurement of GH and IGF-I levels in the serum, as well as IGF-I and IGF-II concentrations in the cytosol fraction of tumors, blood samples and tumor samples were collected and processed as described (Braczkowski R, Schally A V, Plonowski A, Varga J L, Groot K, Krupa M, Armatis P, Cancer 95: 1735-1745, 2002), hereby incorporated by reference. Briefly, blood samples are centrifuged to separate the serum, tumors are homogenized and centrifuged to separate the cytosol fraction. Serum GH is then measured by the double-antibody RIA method. Before measurement by RIA, IGF-I and IGF-II are extracted from serum and cytosol fractions using an acid-ethanol cryoprecipitation method that eliminates most of the IGF binding proteins, which can interfere with the RIA. IGF-I concentration is measured by RIA using IGF-I as a standard and goat anti-IGF-I antibody (both from DSL Inc., Webster, Tex.). IGF-II concentration is measured by RIA using human recombinant IGF-II (Bachem) as a standard and anti-IGF-II monoclonal antibody (Amano International Enzyme, Troy, Va.).
(§2) Male nude mice were implanted s.c. with 3 mm^3 pieces of PC-3 human hormone-independent prostate cancer tissue on both flanks. When tumors reached a volume of approx. 50 mm^3, the mice were divided into 5 experimental groups with 7 to 8 animals in each group and received single daily injections for 28 days as follows: 1. Control (vehicle solution); 2. JV-1-38 (10 μg/day s.c.); 3 Peptide 31 (10 μg/day s.c.); 4. Peptide 67 (10 μg/day s.c.); 5. Peptide 62 (10 μg/day s.c.). Tumor volumes were measured twice a week. The experiment was ended on day 29 by sacrificing the mice under Isoflurane anesthesia. Resulting tumors were cleaned, weighed, and snap-frozen until further analyses. Trunk blood was collected from the abdominal aorta and serum was separated for RIA measurement of IGF-I. Statistical analyses of the measurement results were done by two-tailed t-test; data are presented as the means±S.E.

[3] = test system: IGF-I; assay: PC-3 xenografts, Experiment 2: serum IGF-I (RIA); type: in vivo, nude mice; conditions: 10 μg/day s.c., 28 days
Source text: as §1, §2
(§3) Experiment 2 was similar to Experiment 1, with the difference that Experiment 2 was started when PC-3 tumors had grown to approximately 30 mm^3 in volume. At this time, the animals were divided into 8 experimental groups with 8 animals in each group, and received single daily injections for 28 days as follows. 1. Control (vehicle solution); 2. JV-1-38 (10 μg/day s.c.); 3. Peptide 46 (5 μg/day: s.c.); 4. Peptide 77 (5 μg/day s.c); 5. Peptide 76 (5 μg/day s.c.); 6. Peptide 70 (5 μg/day s.c.); 7 Peptide 79 (5 μg/day s.c.); 8. Peptide 80 (5 μg/day s.c.). Further details of Experiment 2 are the same as for Experiment 1.

[4] = test system: IGF-II; assay: PC-3 xenografts, Experiment 1: tumor IGF-II (RIA); type: in vivo, nude mice; conditions: 10 μg/day s.c., 28 days
Source text: as §1, §2

[5] = test system: PC-3 human prostate cancer xenografts; assay: PC-3 xenografts in nude mice, Experiment 1: tumor growth; type: in vivo
Method: as §2

[6] = test system: PC-3 human prostate cancer xenografts; assay: PC-3 xenografts in nude mice, Experiment 2: tumor growth; type: in vivo
Method: as §2, §3

[7] = test system: PC-3 human prostate cancer xenografts; assay: PC-3 xenografts in nude mice, Experiment 3: tumor growth; type: in vivo
Summary of the method: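 Male nude mice bearing s.c. PC-3 tumour fragments on both flanks (~65 mm^3 at start), 8–9 per group, given daily s.c. injections at 10 μg/day for 28 days vs vehicle. Tumour volume measured twice weekly; at day 28 tumours weighed and serum IGF-I measured by RIA; ANOVA with Fisher test, means±S.E.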

[8] = 10 μg/day s.c., 28 days, vs control

## CCCC[C@H](NC(=O)[C@@H](NC(=O)[C@H](CC(=O)O)NC(=O)[C@H](CCC(N)=O)NC(=O)[C@H](CC(C)C)NC(=O)[C@H](CC(C)C)NC(=O)[C@H](CCCCN)NC(=O)[C@H](CCCNC(=N)N)NC(=O)[C@H](C)NC(=O)[C@H](CO)NC(=O)[C@H](CC(C)C)NC(=O)[C@H](CCC(N)=O)NC(=O)[C@H](CC)NC(=O)[C@H](CC(C)C)NC(=O)[C@@H](NC(=O)[C@H](CCCCN)NC(=O)[C@H](CCCNC(=N)N)NC(=O)[C@H](Cc1ccc(OC)cc1)NC(=O)[C@H](CCCCNC(=N)N)NC(=O)[C@H](CC(N)=O)NC(=O)[C@@H](NC(=O)[C@H](Cc1ccc(Cl)cc1)NC(=O)[C@@H](NC(=O)[C@H](C)NC(=O)[C@H](CC(=O)O)NC(=O)[C@@H](CCCNC(=N)N)NC(=O)[C@H](Cc1ccc(O)cc1)NC(=O)Cc1ccccc1)[C@@H](C)CC)[C@@H](C)O)C(C)C)[C@@H](C)CC)C(=O)N[C@H](CCCNC(=N)N)C(=O)N[C@@H](CCCCNC(=N)N)C(N)=O [JV-1-38, reference compound] (PhAc-Y[dR]DAI[Phe(4-Cl)]TN[hArg]Y(Me)RKVL[Abu]QLSARKLLQDI[Nle][dR][hArg]-NH2; N-terminus and C-terminus assumed)
[1]; 1 nM hGH-RH(1-29)NH2 at 0 min
  GH response (% of control) 0 min: 59 % of control
[1]; 1 nM hGH-RH(1-29)NH2 at 30 min
  GH response (% of control) 30 min: 32 % of control
[1]; 1 nM hGH-RH(1-29)NH2 at 60 min
  GH response (% of control) 60 min: 28 % of control
[1]; 1 nM hGH-RH(1-29)NH2 at 90 min
  GH response (% of control) 90 min: 34 % of control
[1]; 1 nM hGH-RH(1-29)NH2 at 120 min
  GH response (% of control) 120 min: 31 % of control
[2]
  Serum IGF-I: 147 ± 8.49 ng/mL
[2]; vs control
  Serum IGF-I (% inhibition): (1%)
[3]
  Serum IGF-I: 293 ± 28.0 ng/mL
[4]
  Tumor IGF-II (pg/mg protein): 208 ± 43.3 pg/mg protein
[4]; vs control
  Tumor IGF-II (% inhibition): (5%)
[5]; 10 μg/day s.c., 28 days
  Tumor volume (mm^3) Final: 291 ± 80.4 mm^3
  Tumor volume doubling time: 12.3 ± 1.04 days
  Tumor weight: 239 ± 58.0 mg
[5]; [8]
  Tumor volume Final (% inhibition): (42%)
  Tumor weight (% inhibition): (37%)
[5]; at start of treatment
  Tumor volume (mm^3) Initial: 49.2 ± 8.37 mm^3
[6]; 10 μg/day group, at start of treatment
  Tumor volume (mm^3) Initial: 29.3 ± 3.8 mm^3
[6]; 10 μg/day s.c., 28 days
  Tumor volume (mm^3) Final: 351 ± 72.9 mm^3
  Tumor volume doubling time: 8.7 ± 0.7 days
  Tumor weight: 254 ± 52.0 mg
[6]; [8]
  Tumor volume Final (% inhibition): (0%)
[7]; 10 μg/day s.c., 28 days
  Tumor volume (mm^3) Final: 276 ± 48.7** mm^3
  Tumor volume doubling time: 18.2 ± 1.84 days
  Tumor weight: 386 ± 62.9 mg
[7]; [8]
  Tumor volume Final (% inhibition): (66%)
  Tumor weight (% inhibition): (45%)
[7]; at start of treatment
  Tumor volume (mm^3) Initial: 68.3 ± 8.08 mm^3
